Measured values published in PMC4352194, “Physicochemical and Biological Properties of Oxovanadium(IV), Cobalt(II) and Nickel(II) Complexes with Oxydiacetate Anions” (Biological Trace Element Research, 2014).

Columns and labels:
[1] = set-up: method as in earlier work; settings: fixed in the calculations; cited from earlier work
[2] = set-up: method as in doi:10.1016/j.molstruc.2011.03.036, PMID 23047227; settings: cited from earlier work
[3] = tested on: Staphylococcus epidermidis; assay: Disc diffusion test; type: cell-based; settings: S. epidermidis, 100 μg/disc
Experimental: (§1) The antimicrobial activity of complex compounds was assessed against Bacillus subtilis, Escherichia coli, Enterococcus faecalis, Pseudomonas aeruginosa, Staphylococcus aureus, Staphylococcus epidermidis (all strains were from the collection of the Department of Molecular Biology, University of Gdańsk). All bacteria were cultured in the Luria-Bertani (LB) broth at 310.15 K in the air with shaking. LB agar plates were prepared by the supplementation of LB broth with the 1.5 % bacteriological agar. Stock solutions of complex compounds were freshly prepared in the LB broth at the concentration of 25 mg/mL. Aliquots of 0.05 mL of bacterial culture at the optical density at 600 nm of 0.1 (inoculum 5 × 10^6 cells per plate) were spread on LB agar plates. Sterile filter paper discs (of 6 mm diameter) were impregnated with solutions of complex compounds prepared in the deionized water at the following amounts: 0.1, 0.2, 0.5 and 1.0 mg per disc and placed on agar plates. After an overnight incubation at 310.15 K, zones of bacterial growth inhibition were measured. Neomycin at the amount of 0.1 mg/disc was used as a control.

Staphylococcus aureus = assay: Disc diffusion test; type: cell-based; settings: S. aureus, 100 μg/disc
Experimental: as §1

Pseudomonas aeruginosa = assay: Disc diffusion test; type: cell-based; settings: P. aeruginosa, 100 μg/disc
Experimental: as §1

Escherichia coli = assay: Disc diffusion test; type: cell-based; settings: E. coli, 100 μg/disc
Experimental: as §1

Bacillus subtilis = assay: Disc diffusion test; type: cell-based; settings: B. subtilis, 100 μg/disc
Experimental: as §1

Enterococcus faecalis = assay: Disc diffusion test; type: cell-based; settings: E. faecalis, 100 μg/disc
Experimental: as §1

[4] = Potentiometric titration: dissociation constants of oxydiacetic acid in DMSO-water; type: physicochemical; settings: 298.15 K
Experimental: (§2) Potentiometric titrations were performed in a 30-mL thermostated (298.15 ± 0.10 K) cell using the Cerko Lab System microtitration unit fitted with a 5-mL Hamilton’s syringe, a pH combined electrode (Schott–BlueLine 16 pH type) and a self-made measuring cell equipped with a magnetic stirrer. The temperature was controlled using the Lauda E100 circulation thermostat. In aqueous solutions, the electrode was calibrated according to IUPAC recommendations. In binary systems (10–50 % v/v DMSO:H2O), the electrode calibration was performed by the Gran’s method using the GLEE program. For this purpose, the HClO4 solution was titrated with tetrabutylammonium hydroxide (Bu4NOH) solution both at the same mole fraction of organic solvent (10–50 (v/v%) DMSO). The syringe was calibrated by a weight method. The double distilled water of conductivity approximately 0.18 μS/cm was used throughout for the preparation of aqueous solutions. Other reagents used in the experiments were purchased from Sigma-Aldrich. They were as follows: VOSO4 (≥99.99 % trace metals basis), Co(NO3)2·6H2O (ACS reagent, ≥99 %), Ni(NO3)2·6H2O (99.999 %) and 2,2′-oxydiacetic acid (H2ODA, 98 %). All the solutions were prepared immediately before measurements. The compositions of the titrand solutions used in the experiments were as follows: (a) 2 mM Ni^2+ (Co^2+ or VO^2+), 5 mM H2ODA, 5 mM HClO4, (b) 2.5 mM H2ODA (for binary systems). The solutions (Vo = 5.0 mL) were potentiometrically titrated with the standardized 0.098 M NaOH solution or with the standardized 0.025 M Bu4NOH solution (in binary systems) in the pH range from 2.5 to 11.0. The titrant was added to the titrand in increments of 0.01 mL, with a pause of 60 s. Each titration was repeated at least three times in order to check the reproducibility of the data. The stability constants of the complexes were determined using the Hyperquad2008 program. The concentration distribution of various complex species existing in the solution as a function of pH was obtained using the HySS program.
To assess the influence of DMSO as a co-solvent on the stability of the complexes, its effect on the dissociation constants of H2ODA was investigated potentiometrically in the first instance. The representative pH-titration curves for oxydiacetic acid at 298.15 K in 0, 30 and 50 % (v/v) DMSO-water binary systems are shown in Fig. 2, whereas the calculated dissociation constants are collected in Table 3. In the calculations, the ionization constants of the solvents, pK s, were taken from the literature.

[5] = Potentiometric titration: stability constants of the complexes; type: physicochemical; settings: PT, 298.15 K, aqueous
Experimental: as §2
The equilibrium constants defined by Eqs. (1) and (2):1 pM+qL+rH=MpLqHr 2 βpqr=MpLqHr/M^pL^qH^r (where M is VO^2+, Co^2+ or Ni^2+, L denotes the oxydiacetate ion, H is the proton and p, q, r are stoichiometric coefficients for the reaction) were refined by least-squares calculations using the Hyperquad2008 (version 5.2.19) computer program. For the oxovanadium(IV) system, the formation of the hydroxo complexes of VO(IV) were taken into account in the calculations of the stability constants. The following formation constants were taken from the literature and were fixed: logβ 10–1 = −5.94, logβ 20–2 = −6.95 and logβ 10–3 = −18. The equilibrium models presented in Table 2 have given the best fitting of the calculated data to the experimental ones.

For `[O]=[V+2]` [VO(IV)], the “logβ 10–1 (hydroxo complex formation constant)” value [1] is listed as −5.94, the “logβ 10–3 (hydroxo complex formation constant)” value [1] is listed as −18 and the “logβ 20–2 (hydroxo complex formation constant)” value [1] is listed as −6.95.
In the case of `Cc1ccncc1.O.O.O.O=C([O-])COCC(=O)[O-].[Cu+2]` [[Cu(ODA)(4-pic)(H2O)]∙2H2O], the SOD activity [2] is given as “considerable SOD activity”.
In the case of `NC[C@@H]1O[C@H](O[C@H]2[C@@H](O)[C@H](O[C@@H]3[C@@H](O)[C@H](N)C[C@H](N)[C@H]3O[C@H]3O[C@H](CN)[C@@H](O)[C@H](O)[C@H]3N)O[C@@H]2CO)[C@H](N)[C@@H](O)[C@@H]1O` [Neo, Neomycin, reference compound], the “Zone of growth inhibition” value [3] is reported as 25 mm, the “Zone of growth inhibition” value (Staphylococcus aureus) is reported as 18 mm and the “Zone of growth inhibition” value (Pseudomonas aeruginosa) is reported as 17 mm. The “Zone of growth inhibition” value (Escherichia coli) was 15 mm, the “Zone of growth inhibition” value (Bacillus subtilis) was 21 mm and the “Zone of growth inhibition” value (Enterococcus faecalis) was 16 mm.
In the case of `O.O.O.O.O.O=C([O-])COCC(=O)[O-].[Cu+2].c1ccc(-c2ccccn2)nc1` [[Cu(ODA)(bipy)(H2O)]∙4H2O], the SOD activity [2] is given as “considerable SOD activity”.
In the case of `O=C(O)COCC(=O)O` [H2ODA, 2,2′-oxydiacetic acid], the “pK a1 (H2ODA = HODA^− + H^+)” value ([4]; DMSO 0 % v/v) is reported as 2.90 (±0.05), the “pK a2 (HODA^− = ODA^2− + H^+)” value ([4]; DMSO 0 % v/v) is reported as 4.28 (±0.08) and the “pK a1 (H2ODA = HODA^− + H^+)” value ([4]; DMSO 10 % v/v) is reported as 3.11 (±0.04). For the same compound, the “pK a2 (HODA^− = ODA^2− + H^+)” value ([4]; DMSO 10 % v/v) was 4.52 (±0.02), the “pK a1 (H2ODA = HODA^− + H^+)” value ([4]; DMSO 20 % v/v) was 3.28 (±0.02) and the “pK a2 (HODA^− = ODA^2− + H^+)” value ([4]; DMSO 20 % v/v) was 4.69 (±0.02). The “pK a1 (H2ODA = HODA^− + H^+)” value ([4]; DMSO 30 % v/v) was 3.42 (±0.04), the “pK a2 (HODA^− = ODA^2− + H^+)” value ([4]; DMSO 30 % v/v) was 4.91 (±0.02) and the “pK a1 (H2ODA = HODA^− + H^+)” value ([4]; DMSO 40 % v/v) was 3.61 (±0.03). The “pK a2 (HODA^− = ODA^2− + H^+)” value ([4]; DMSO 40 % v/v) was 5.16 (±0.02), the “pK a1 (H2ODA = HODA^− + H^+)” value ([4]; DMSO 50 % v/v) was 3.76 (±0.03) and the “pK a2 (HODA^− = ODA^2− + H^+)” value ([4]; DMSO 50 % v/v) was 5.46 (±0.03). The “logβ 011 (LH)” value ([5]; fitted in the M = Co^2+ system) was 4.16 (±0.09), the “logβ 012 (LH2)” value ([5]; fitted in the M = Co^2+ system) was 7.26 (±0.06) and the “logβ 011 (LH)” value ([5]; fitted in the M = Ni^2+ system) was 4.12 (±0.01). For the same compound, the “logβ 012 (LH2)” value ([5]; fitted in the M = Ni^2+ system) was 6.97 (±0.01), the “logβ 011 (LH)” value ([5]; fitted in the M = VO^2+ system) was 4.20 (±0.05) and the “logβ 012 (LH2)” value ([5]; fitted in the M = VO^2+ system) was 7.25 (±0.05).
